The source of these data is paper PMC4685510, “A Cell Biologist’s Field Guide to Aurora Kinase Inhibitors” (Frontiers in Oncology, 2015).

The test system of data set [1] is HeLa cells. Kind of data set: G2 duration live imaging assay (GFP-PCNA; H2B-RFP), HeLa. Type of data set: cell-based, human.
Data set [2] concerns HeLa, RPE1, and U2OS cells. Put plainly: Cellular proliferation analysis (ATPLite, 24 h). Conditions: HeLa, RPE1, U2OS; 24 h (Figure 4D, Figure S2B).
The target in data set [3] is T1, Aurora B/INCENP^783–918 (Homo sapiens, UniProt Q96GD4).
T1 construct: purchased SignalChem
T1 sequence (Q96GD4 whole entry): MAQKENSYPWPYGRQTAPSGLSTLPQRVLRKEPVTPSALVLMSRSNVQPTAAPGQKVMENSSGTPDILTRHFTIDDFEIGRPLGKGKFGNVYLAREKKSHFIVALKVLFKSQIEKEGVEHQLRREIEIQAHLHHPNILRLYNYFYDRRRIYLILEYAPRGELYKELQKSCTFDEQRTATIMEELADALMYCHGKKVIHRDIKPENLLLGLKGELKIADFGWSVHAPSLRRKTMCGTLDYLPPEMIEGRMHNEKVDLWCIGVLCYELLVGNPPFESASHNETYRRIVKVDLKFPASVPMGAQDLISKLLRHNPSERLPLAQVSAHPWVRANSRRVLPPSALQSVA
T1 sequence (Q9NQS7 783-918 partner limits assumed): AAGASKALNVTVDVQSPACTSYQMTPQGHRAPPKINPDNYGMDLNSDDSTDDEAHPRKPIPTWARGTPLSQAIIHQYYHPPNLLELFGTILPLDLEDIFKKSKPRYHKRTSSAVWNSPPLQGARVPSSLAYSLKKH
Put plainly: Aurora B/INCENP^783–918 kinase assay (ADP-Glo). Type of data set: biochemical. A general note: ADP-Glo turns the ADP formed in a reaction into a luminescent signal.

Data set [4] deals with RPE1 cells. Kind of data set: G2 duration live imaging assay (GFP-PCNA; H2B-RFP), RPE1. Type of data set: cell-based. Conditions: Homo sapiens, RPE-1, read-out: G2/M (G2 duration) IC50.
In data set [5] the test system is Aurora A. Conditions: ref 57; read-out: Aurora A IC50 (Published); cited from earlier work.
In data set [6] the target is T2, 363 human kinases (including Aurora A/B/C) (Homo sapiens, UniProt Q15831).
T2 sequence (Q15831 1-433): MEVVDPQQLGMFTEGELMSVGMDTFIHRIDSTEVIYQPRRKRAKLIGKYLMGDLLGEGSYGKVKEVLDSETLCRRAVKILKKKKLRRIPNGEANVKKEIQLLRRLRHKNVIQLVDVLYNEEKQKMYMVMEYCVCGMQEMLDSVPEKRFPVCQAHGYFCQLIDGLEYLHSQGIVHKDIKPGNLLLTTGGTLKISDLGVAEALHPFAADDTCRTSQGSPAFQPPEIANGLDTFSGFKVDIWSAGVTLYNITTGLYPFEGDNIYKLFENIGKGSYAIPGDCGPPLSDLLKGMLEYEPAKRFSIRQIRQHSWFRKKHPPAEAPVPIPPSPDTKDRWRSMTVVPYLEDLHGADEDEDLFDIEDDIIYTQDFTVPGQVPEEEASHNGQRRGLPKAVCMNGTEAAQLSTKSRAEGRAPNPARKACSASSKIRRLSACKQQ
Kind of data set: biochemical. Type of data set: biochemical. Conditions: LKB1.
Source text: (§1) However, the Aurora A/B selectivity ratios derived from our in vitro and in vivo data can be compared to prioritize inhibitors.

Data set [7] addresses T3, 363 human kinases (including Aurora A/B/C) (Homo sapiens, UniProt Q9UQB9).
T3 sequence (Q9UQB9 1-309): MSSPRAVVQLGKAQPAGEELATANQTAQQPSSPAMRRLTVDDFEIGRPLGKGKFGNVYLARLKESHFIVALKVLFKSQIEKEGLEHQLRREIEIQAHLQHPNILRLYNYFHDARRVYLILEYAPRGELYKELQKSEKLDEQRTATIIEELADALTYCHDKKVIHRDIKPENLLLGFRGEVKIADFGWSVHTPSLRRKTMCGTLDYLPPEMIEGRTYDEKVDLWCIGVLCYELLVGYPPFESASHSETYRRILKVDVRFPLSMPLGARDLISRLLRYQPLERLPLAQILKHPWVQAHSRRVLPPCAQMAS
Put plainly: biochemical. Type of data set: biochemical. Conditions: Aurora C, [ATP] 30 µM.
Source text: as §1

In data set [8] the target is 363 human kinases (including Aurora A/B/C) (Homo sapiens, UniProt Q16584). Kind of data set: biochemical. The settings on record: MLK3/MAP3K11, 500 nM. Type of data set: biochemical.
363 human kinases (including Aurora A/B/C) (Homo sapiens, UniProt Q16584), sequence (Q16584 whole entry): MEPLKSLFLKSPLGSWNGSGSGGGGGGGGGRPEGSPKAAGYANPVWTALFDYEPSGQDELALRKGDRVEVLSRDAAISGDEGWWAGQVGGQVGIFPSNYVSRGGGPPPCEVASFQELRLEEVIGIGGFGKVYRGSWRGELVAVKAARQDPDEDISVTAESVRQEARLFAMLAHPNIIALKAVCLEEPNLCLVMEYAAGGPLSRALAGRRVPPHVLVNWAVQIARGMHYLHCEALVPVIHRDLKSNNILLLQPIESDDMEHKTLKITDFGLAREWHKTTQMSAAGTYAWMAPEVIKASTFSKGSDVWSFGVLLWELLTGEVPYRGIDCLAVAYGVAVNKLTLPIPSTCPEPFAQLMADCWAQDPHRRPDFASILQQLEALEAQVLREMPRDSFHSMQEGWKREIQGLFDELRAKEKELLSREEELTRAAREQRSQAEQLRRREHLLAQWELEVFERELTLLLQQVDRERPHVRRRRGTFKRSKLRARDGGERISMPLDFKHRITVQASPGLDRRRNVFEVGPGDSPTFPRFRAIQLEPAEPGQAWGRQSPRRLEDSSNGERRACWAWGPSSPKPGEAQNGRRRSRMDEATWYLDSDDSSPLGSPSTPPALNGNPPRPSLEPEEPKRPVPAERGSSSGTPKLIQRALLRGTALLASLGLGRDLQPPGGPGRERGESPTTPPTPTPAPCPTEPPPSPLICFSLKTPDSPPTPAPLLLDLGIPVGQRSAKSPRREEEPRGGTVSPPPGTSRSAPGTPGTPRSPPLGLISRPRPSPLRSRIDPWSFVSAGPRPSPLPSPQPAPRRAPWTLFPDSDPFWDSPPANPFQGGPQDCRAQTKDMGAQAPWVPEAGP
Source text: as §1
Data set [9] concerns the target 363 human kinases (including Aurora A/B/C) (Homo sapiens, UniProt P00519). Put plainly: biochemical. Type of data set: biochemical. The settings on record: ABL1, [ATP] 40 µM.
Source text: as §1
Data set [10] concerns the target T4, Aurora A/TPX2^1–43 (Homo sapiens, UniProt O14965).
T4 sequence (O14965 1-403): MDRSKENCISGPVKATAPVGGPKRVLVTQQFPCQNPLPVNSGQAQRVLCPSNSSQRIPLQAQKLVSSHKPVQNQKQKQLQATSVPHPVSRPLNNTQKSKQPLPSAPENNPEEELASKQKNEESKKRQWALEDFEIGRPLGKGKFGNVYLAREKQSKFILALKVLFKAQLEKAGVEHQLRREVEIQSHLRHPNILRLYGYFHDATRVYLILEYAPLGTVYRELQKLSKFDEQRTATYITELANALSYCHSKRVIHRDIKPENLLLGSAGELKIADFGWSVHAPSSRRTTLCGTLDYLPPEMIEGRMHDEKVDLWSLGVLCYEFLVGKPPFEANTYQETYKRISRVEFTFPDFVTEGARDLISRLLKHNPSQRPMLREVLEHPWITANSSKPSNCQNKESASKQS
T4 sequence (Q9ULW0 1-43 partner limits assumed): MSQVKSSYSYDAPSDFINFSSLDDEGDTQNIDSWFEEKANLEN
Put plainly: Aurora A/TPX2^1–43 kinase assay (ADP-Glo).

Data set [11] deals with U2OS cells. Put plainly: G2 duration live imaging assay (GFP-PCNA; H2B-RFP), U2OS. The settings on record: Homo sapiens, read-out: G2/M (G2 duration) IC50. Type of data set: cell-based.
The target in data set [12] is T5, full-length human Aurora A (Homo sapiens, UniProt O14965).
T5 sequence (O14965 1-403): T4 sequence (O14965 1-403)
Kind of data set: Aurora A kinase assay (ADP-Glo, Kemptide substrate).

Data set [13] concerns U2OS cells. Put plainly: Cytokinesis assay (live imaging, YFP-α-tubulin; H2B-RFP), U2OS. Conditions: Homo sapiens, cytokinesis failure, read-out: Cytokinesis IC50. Type of data set: cell-based.
In data set [14] the test system is HeLa cells. Put plainly: Cytokinesis assay (live imaging, YFP-α-tubulin; H2B-RFP), HeLa. Type of data set: cell-based, human. The settings on record: Homo sapiens; HeLa; cytokinesis failure; read-out: Cytokinesis IC50.
The subject of data set [15] is RPE1 cells. Put plainly: Cytokinesis assay (live imaging, YFP-α-tubulin; H2B-RFP), RPE1. Type of data set: cell-based. The settings on record: Homo sapiens, RPE-1; RPE1; cytokinesis failure; read-out: Cytokinesis IC50.
The target in data set [16] is Aurora A-TPX2. Conditions: ref 61; read-out: Aurora A-TPX2 Ki (Published); cited from earlier work.
Where [17] appears, read: Homo sapiens, read-out: G2/M (G2 duration) IC50, HeLa.
Setting [18] is: read-out: G2/M (G2 duration) IC50.
Setting [19] is: 500 nM, read-out: % Enzyme Activity (relative to DMSO controls).
Setting [20] is: fold difference in potency calculated by dividing Ki values.
The mark [21] stands for this setting: 100 nM, read-out: % Enzyme Activity (relative to DMSO controls).

363 human kinases (including Aurora A/B/C) (Homo sapiens, UniProt P00519), sequence (P00519 whole entry): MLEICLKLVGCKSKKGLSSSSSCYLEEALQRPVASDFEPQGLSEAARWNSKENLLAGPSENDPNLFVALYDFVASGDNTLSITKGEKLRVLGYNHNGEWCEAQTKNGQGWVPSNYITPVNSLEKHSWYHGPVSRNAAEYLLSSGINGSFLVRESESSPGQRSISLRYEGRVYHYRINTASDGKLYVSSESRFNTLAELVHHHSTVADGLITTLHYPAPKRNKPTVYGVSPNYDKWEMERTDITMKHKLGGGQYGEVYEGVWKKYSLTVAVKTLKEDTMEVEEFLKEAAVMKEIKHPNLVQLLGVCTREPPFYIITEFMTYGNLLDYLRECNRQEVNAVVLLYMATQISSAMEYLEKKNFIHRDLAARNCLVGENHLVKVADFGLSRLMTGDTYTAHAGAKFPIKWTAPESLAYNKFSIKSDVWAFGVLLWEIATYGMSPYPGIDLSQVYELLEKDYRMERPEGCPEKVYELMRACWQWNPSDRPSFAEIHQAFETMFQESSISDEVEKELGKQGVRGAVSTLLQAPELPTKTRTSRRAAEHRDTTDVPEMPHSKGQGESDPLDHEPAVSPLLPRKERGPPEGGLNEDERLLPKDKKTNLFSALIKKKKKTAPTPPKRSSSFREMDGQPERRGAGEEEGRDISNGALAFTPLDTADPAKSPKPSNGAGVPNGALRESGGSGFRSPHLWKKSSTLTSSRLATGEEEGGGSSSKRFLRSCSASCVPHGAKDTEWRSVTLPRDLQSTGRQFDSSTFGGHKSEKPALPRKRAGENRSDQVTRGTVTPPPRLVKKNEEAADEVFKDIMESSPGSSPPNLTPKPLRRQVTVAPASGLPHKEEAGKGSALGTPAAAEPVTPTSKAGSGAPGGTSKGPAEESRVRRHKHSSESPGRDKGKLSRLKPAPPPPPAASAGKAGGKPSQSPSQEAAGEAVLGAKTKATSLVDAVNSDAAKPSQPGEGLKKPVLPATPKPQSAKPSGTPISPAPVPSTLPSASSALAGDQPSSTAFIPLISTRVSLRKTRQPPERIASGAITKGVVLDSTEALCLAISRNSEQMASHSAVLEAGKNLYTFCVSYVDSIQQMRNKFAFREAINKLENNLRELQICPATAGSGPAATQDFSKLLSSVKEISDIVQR

With `O=C(c1cccc(Cl)c1F)N1CCN(Cc2cccc(Nc3nccs3)n2)CC1` [MK-8745], the IC50 in [1] (setting [17]) was 600 to 800 nM; in data set [1] (setting [18]), 596 nM; in data set [3] ([ATP] = Km(ATP), example dataset), 118 nM; in [4], 755 nM; in data set [5] it was 0.6 nM; in [10], 0.83 nM. Moreover, the IC50 was determined as 437 nM in data set [11] and 0.23 nM in [12]. For the same compound, the “Toxicity / cytotoxicity (cellular proliferation)” value in data set [2] is reported as “not cytotoxic”. Also, the Ki in data set [3] (Aurora B INCENP^783-918 Ki (example dataset, Figure 2D), calculated from the example IC50) was 58.8 nM; in [3] (Aurora B-INCENP^783–918 Ki Mean ± SD, [ATP] = Km(ATP) (10 μM)), 66.8 ± 19.6 nM; in data set [10] (Aurora A TPX2^1-43 Ki (example dataset, Figure 2D), calculated from the example IC50), 0.36 nM; in [10] (Aurora A-TPX2^1–43 Ki Mean ± SD, [ATP] = Km(ATP) (3 μM), 40 nM TPX2^1–43) it was 0.41 ± 0.06 nM; in data set [12] (Aurora A Ki Mean ± SD, [ATP] = Km(ATP) (35 μM), Ki calculated from IC50 with tight-binding equation), 0.06 ± 0.004 nM. Also, the “% Enzyme Activity (relative to DMSO controls)” value in data set [6] (500 nM) is on record as 25.85%; in data set [7] (500 nM), 46.69%; in [8], 92.79%; in data set [9] (500 nM) it was 76.80%. For the same compound, the remaining activity at 0.5 µM in [6] (setting [19]) is 26.1%; in data set [7] (setting [19]), 47.4%; in [8] (read-out: % Enzyme Activity (relative to DMSO controls)), 94.8%; in data set [9] (setting [19]) it was 77.7%. For the same compound, the “Selectivity ratio Aur A-TPX2^1–43 versus Aur B-INCENP^783–918” value in [10] (setting [20]) is reported as 162 fold. In addition, the “Selectivity ratio Aur A versus Aur A-TPX2^1–43” value in [12] (setting [20]) is on record as 6.3 fold. In addition, the “Selectivity ratio Aur A versus Aur B-INCENP^783–918” value in data set [12] (setting [20]) is listed as 1030 fold.
As to `CCn1cc(-c2ccnc3[nH]c(-c4cccc(CN(C)C)c4)cc23)c(-c2ccc(NC(=O)N(C)C)cc2)n1` [GSK1070916], the IC50 was 6 nM in data set [13], 6 nM in data set [14] and 21 nM in [15]. In addition, the inhibition constant (Ki) in [16] is 492 nM. For the same compound, the remaining activity at 0.1 µM in data set [7] (setting [21]) was found to be 39.7%.
`O=C(O)[C@]1(Cc2cccc(Nc3nccs3)n2)CC[C@@H](Oc2cccc(Cl)c2F)CC1` [MK-5108]: the IC50 is 600 to 800 nM in data set [1] (setting [17]), 816 nM in data set [1] (setting [18]), 877 nM in data set [4] and 995 nM in data set [11]. In addition, the remaining activity at 0.1 µM in data set [6] (setting [21]) worked out at 76.6%; in data set [9] (setting [21]) it was 15.6%. Besides, the remaining activity at 0.5 µM in data set [6] (setting [19]) was determined as 47.4%; in data set [9] (setting [19]), 1.92%.

A word on the Ki: it is a measure of affinity in units of concentration, obtained from inhibition or displacement.
